Legend:
Format in all cases: cell-based
[1] = molecular target: T1, AGTR1 (Homo sapiens, UniProt P30556); experiment: DiscoveRx β-arrestin2 recruitment assay (enzyme complementation, Pathunter CHO-K1 AGTR1 β-arrestin cell line); conditions: DiscoveRx β-arrestin2 recruitment; for DiscoveRx β-arrestin2 Ymax (%): maximal response
T1 construct: host or cells: Pathunter CHO-K1 AGTR1 β-arrestin cell line (CHO-K1)
T1 sequence (P30556 1-359): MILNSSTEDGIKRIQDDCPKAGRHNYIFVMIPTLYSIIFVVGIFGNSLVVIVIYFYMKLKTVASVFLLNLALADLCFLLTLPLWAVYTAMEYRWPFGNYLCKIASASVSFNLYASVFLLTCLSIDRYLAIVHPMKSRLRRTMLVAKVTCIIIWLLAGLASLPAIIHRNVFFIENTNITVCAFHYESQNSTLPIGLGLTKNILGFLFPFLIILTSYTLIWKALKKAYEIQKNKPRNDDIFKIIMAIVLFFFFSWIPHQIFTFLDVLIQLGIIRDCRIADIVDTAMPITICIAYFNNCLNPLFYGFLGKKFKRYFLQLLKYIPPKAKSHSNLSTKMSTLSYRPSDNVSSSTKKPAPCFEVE
How it was run: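 Chemiluminescent enzyme-complementation read-out of β-arrestin2 recruitment to AGTR1 in engineered CHO-K1 cells after 90 min compound exposure at 37° C. Values are 4-parameter logistic EC50s in agonist mode, IC50s in antagonist mode, with efficacy relative to the maximal All response.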

[2] = molecular target: T2, hAT1R (Homo sapiens, UniProt P30556); experiment: BRET Gq biosensor assay, agonist response, HEK293 cells; conditions: section of the 42nd table directly before the BRET P63 section
T2 sequence (P30556 1-359): T1 sequence (P30556 1-359)
How it was run: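 Agonist EC50 derived from a 4-parameter fit of BRET2 ratio (GFP 515 nm/Rluc 410 nm), scaled between unstimulated control and maximal AngII response. Readings taken 5 min after compound addition at room temperature, with 2 μM coelenterazine, in HEK293 cells expressing hAT1R, Gαq-Rluc, Gβ1 and GFP-Gγ1 (transfected two days earlier).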

[3] = molecular target: T2, hAT1R; experiment: BRET β-arrestin2 biosensor assay, higher receptor expression (hAT1R 5 ng/well), HEK293 cells; conditions: for EC50: High AT1R Expression

SMILES	EC50 [1] [nM]	DiscoveRx β-arrestin2 Ymax (%) [1] [%]	EC50 [2] [nM]	BRET β-Arrestin2 High AT1R Expression Ymax (%) [3] [%]	EC50 [3] [nM]
CCCCc1ncc(C(=O)NC2CC3(CCC3)C2)n1Cc1ccc(-c2cc(-c3ccccc3)ccc2-c2nn[nH]n2)cc1 [Example 351]	18	45.4	81.1	89.6	38.9
CCCCc1ncc(C(=O)NC(C)(C)C)n1Cc1ccc(-c2cc(-c3ccccc3)ccc2-c2nn[nH]n2)cc1 [Example 352]	234	35.7	1180	62.2	290
CCCCc1ncc(C(=O)Nc2ccncc2)n1Cc1ccc(-c2cc(-c3ccccc3)ccc2-c2nn[nH]n2)cc1 [Example 353]	55	22.4	566	49.1	65.5
CCCCc1ncc(C(=O)NC2CCCCC2)n1Cc1ccc(-c2cc(-c3ccccc3)ccc2-c2nn[nH]n2)cc1 [Example 354]	59.9	48.3	45.5	99.5	19.3
CCCCc1ncc(C(=O)NCc2cccnn2)n1Cc1ccc(-c2cc(-c3ccccc3)ccc2-c2nn[nH]n2)cc1 [Example 355]	8.6	42.4	> 1000	92.5	23.3
CCCCc1ncc(C(=O)NCc2nccs2)n1Cc1ccc(-c2cc(-c3ccccc3)ccc2-c2nn[nH]n2)cc1 [Example 356]	27.3	41.5	36.7	84.7	17.7
CCCCc1ncc(C(=O)NCCC2CC2)n1Cc1ccc(-c2cc(-c3ccccc3)ccc2-c2nn[nH]n2)cc1 [Example 357]	19.6	41.8	46.3	72.5	23.4
CCCCc1ncc(C(=O)NC2COC2)n1Cc1ccc(-c2cc(-c3ccccc3)ccc2-c2nn[nH]n2)cc1 [Example 358]	10.1	40.2	44.7	88.8	21.4
CCCCc1ncc(C(=O)NCc2cnccn2)n1Cc1ccc(-c2cc(-c3ccccc3)ccc2-c2nn[nH]n2)cc1 [Example 359]	17.4	43.5	39.4	90.8	15.3
CCCCc1ncc(C(=O)NCC(C)(C)COC)n1Cc1ccc(-c2cc(-c3ccccc3)ccc2-c2nn[nH]n2)cc1 [Example 360]	29.2	37.2	> 100000	75.0	35.1
CCCCc1ncc(C(=O)NC(C)(C)COC)n1Cc1ccc(-c2cc(-c3ccccc3)ccc2-c2nn[nH]n2)cc1 [Example 361]	97.8	29.3	296	61.3	128
CCCCc1ncc(C(=O)NC2CCCCCC2)n1Cc1ccc(-c2cc(-c3ccccc3)ccc2-c2nn[nH]n2)cc1 [Example 362]	123	49.8	34.2	97.0	26.4
CCCCc1ncc(C(=O)NCc2cc(C(C)C)no2)n1Cc1ccc(-c2cc(-c3ccccc3)ccc2-c2nn[nH]n2)cc1 [Example 363]	10.7	46.2	59.6	100.4	23.8
CCCCc1ncc(C(=O)NCC(F)F)n1Cc1ccc(-c2cc(-c3ccccc3)ccc2-c2nn[nH]n2)cc1 [Example 364]	23.2	30.3	119	79.4	50.5
CCCCc1ncc(C(=O)NCC2CC2)n1Cc1ccc(-c2cc(-c3ccccc3)ccc2-c2nn[nH]n2)cc1 [Example 365]	46.2	39.7	40.8	82.7	35.9
CCCCc1ncc(C(=O)NCCC(C)C)n1Cc1ccc(-c2cc(-c3ccccc3)ccc2-c2nn[nH]n2)cc1 [Example 366]	11.1	37.0	42.9	78.7	27.4
CCCCc1ncc(C(=O)NCCOC(C)C)n1Cc1ccc(-c2cc(-c3ccccc3)ccc2-c2nn[nH]n2)cc1 [Example 367]	5.7	35.9	59.1	63.3	17.6
CCCCc1ncc(C(=O)NCC(C)C)n1Cc1ccc(-c2cc(-c3ccccc3)ccc2-c2nn[nH]n2)cc1 [Example 368]	59.8	39.1	96.1	82.6	32.5
CCCCc1ncc(C(=O)N[C@@H](CC)C2CC2)n1Cc1ccc(-c2cc(-c3ccccc3)ccc2-c2nn[nH]n2)cc1 [Example 369]	174	30.9	173	73.8	73.3
CCCCc1ncc(C(=O)N2CCC2)n1Cc1ccc(-c2cc(-c3ccccc3)ccc2-c2nn[nH]n2)cc1 [Example 370]	16.3	26.8	71.9	85.5	45.3
CCCCc1ncc(C(=O)NCc2ccccn2)n1Cc1ccc(-c2cc(-c3ccccc3)ccc2-c2nn[nH]n2)cc1 [Example 371]	5.7	40.8	> 1000	94.4	11
CCCCc1ncc(C(=O)NCCC)n1Cc1ccc(-c2cc(-c3ccccc3)ccc2-c2nn[nH]n2)cc1 [Example 372]	58.8	41.7	73.8	78.9	44.8
CCCCc1ncc(C(=O)NCC(C)(C)C)n1Cc1ccc(-c2cc(-c3ccccc3)ccc2-c2nn[nH]n2)cc1 [Example 373]	14.2	29.5	734	71.4	38.5
CCCCc1ncc(C(=O)NCCOC)n1Cc1ccc(-c2cc(-c3ccccc3)ccc2-c2nn[nH]n2)cc1 [Example 374]	10.5	44.3	16.2	94.4	13.4
CCCCc1ncc(C(=O)Nc2ccncc2C)n1Cc1ccc(-c2cc(-c3ccccc3)ccc2-c2nn[nH]n2)cc1 [Example 375]	89.7	35.8	273	55.7	89.4
CCCCc1ncc(C(=O)Nc2ccc(C)nn2)n1Cc1ccc(-c2cc(-c3ccccc3)ccc2-c2nn[nH]n2)cc1 [Example 376]	18.5	22.1	123	44.2	45.5
CCCCc1ncc(C(=O)NC2CCCC2)n1Cc1ccc(-c2cc(-c3ccccc3)ccc2-c2nn[nH]n2)cc1 [Example 377]	49.5	39.0	146	80.9	25.4
CCCCc1ncc(C(=O)N2CCCCC2)n1Cc1ccc(-c2cc(-c3ccccc3)ccc2-c2nn[nH]n2)cc1 [Example 378]	107	15.7	688	26.3	238
CCCCc1ncc(C(=O)NCC)n1Cc1ccc(-c2cc(-c3ccccc3)ccc2-c2nn[nH]n2)cc1 [Example 379]	21.2	30.2	106	72.7	56.3
CCCCc1ncc(C(=O)NC2CCC2)n1Cc1ccc(-c2cc(-c3ccccc3)ccc2-c2nn[nH]n2)cc1 [Example 380]	59.2	43.1	104	76.0	35

From patent US12037324B2, “Biarylmethyl heterocycles” (Université de Montréal, priority 2016, dated 2024)
